According to US10576078B2 (Council of Scientific & Industrial Research, priority 2017, dated 2020):
pIC50: −log10 of the molar value. Where two headings read alike, the source gives them in different places.

Tests used:
CrkL = test: Immunoblotting of CrkL phosphorylation in K562 cells; format: cell-based, Human; details: 30 min, Y207
Protocol: (§1) K562 cells were treated as indicated for 30 min and stat5 phosphorylation at Y694 or CrkL phosphorylation at Y207 were assessed by immunoblotting. Total stat5 or β-actin expression was assessed to ensure equal loading. Pio was used as a negative control and IMT was used as a positive control. Data is one representative of 3 independent experiments.
(§2) K562 cells were cultured in 6 well plates and treated as indicated in figures or descriptions of FIG. 1E, FIG. 1G and FIG. 2D-E. Cells were then homogenized in lysis buffer containing 50 mM Tris-HCl, pH 7.5, 150 mM NaCl, 1% NP40, 5 mM EDTA, 1 mM DTT, protease and phosphatase inhibitor cocktails (Sigma) and incubated on ice for 30 min followed by 5 cycles of freeze-thaw. Samples were then centrifuged at 14000 rpm at 4° C. for 30 min. Supernatants were then quantified by Bichinchonic acid (Sigma)-based protein estimation. Equal amount of proteins were solubilized in Laemmli buffer, and were resolved by 10%-12% SDS PAGE and transferred onto PVDF membranes (Millipore; Billerica, Mass.). Membranes were blocked in 5% (w/v) non-fat dried milk powder (Sigma) in PBS containing 0.2% Tween 20 (Sigma). […] Immunoreactivity was detected using a chemiluminescent HRP Substrate (Millipore) in a LAS 4010 Chemi-doc Imager (GE Healthcare, Little Chalfont, UK). […]

[1] = system: CD34+ cells from healthy donors
Protocol: (§3) Determination of CFZ's Effect on Cell Viability and Apoptosis • a. CellTitre-Glo assay: Cell viability (in FIG. 1B, FIG. 4 and FIG. 6A) assays was performed using the ATP-based CellTiter-Glo Luminescent cell viability assay (Promega Madison, Wis.) as per the manufacturer's instruction. Briefly, (1.25×10^5) K562 cells/ml (FIG. 1B and FIG. 4) or CD34+ cells from healthy donors (FIG. 6A) were cultured in 48-well plates and were treated as indicated in the respective figures and figure descriptions (vehicle; V=0.1% DMSO). Cells were then incubated with CellTitre-Glo reagent for 15 min. Luminescence was recorded in a GloMax-96 Microplate luminometer (Promega, Madison, Wis.) with an integration time of 1 s per well. • b. Analysis of apoptosis by Annexin V staining and flow cytometry • K562 (FIG. 1C-D) and primary CP-CML cells (FIG. 1H-I) were cultured in 6 well plates (2×10^5 cells/well) and were treated with indicated concentrations of compounds as described in respective figures and their descriptions. Cells were then harvested and washed, and incubated in binding buffer (Annexin V Binding Buffer, BD Pharmingen) with 0.3% Annexin V-FITC and PI for 15 min at room temperature in dark. Apoptosis was measured by FACSCalibur flow cytometer (Becton Dickenson, San Jose, Calif.). • c. TUNEL assay • Pro-apoptotic potential was analysed using a Fluorometric APO-BrdU™ TUNEL Assay Kit (Invitrogen) according to the manufacturer's protocol (FIG. 1F). Cells were treated with Vehicle (0.1% DMSO) or CFZ (5 μM) for 48 h. Cells were then fixed in formaldehyde (4%) for 25 min at 4° C., permeabilized with 0.2% Triton-X100 and washed with PBS. Cells were then incubated in Terminal Deoxynucleotidyl Transferase (TdT) reaction buffer without TdT enzyme for 7 minutes at room temperature and then in TdT buffer with TdT enzyme at 37° C. in dark. After termination of TdT reaction, cells were stained with 5 μg/ml of PI for 15 min in dark followed by washing and analysed with fluorescence microscopy.

stat5 = test: Immunoblotting of stat5 expression and phosphorylation in K562 cells; format: cell-based, Human
Protocol: K562 cells were treated as indicated for 72 h and stat5 expression was assessed by immunoblotting. Pioglitazone (Pio) was used as a positive control. Data is one representative of 3 independent experiments.
as §1
as §2, with “Mass.).” for “Mass.). Membranes were blocked in 5% (w/v) non-fat dried milk powder (Sigma) in PBS containing 0.2% Tween 20 (Sigma).”

K562 cells = test: K562 cell viability, CellTiter-Glo luminescent assay; format: cell-based, Human; details: 48 h; for pIC50: Homo sapiens
Protocol: K562 cells were treated with indicated concentrations of CFZ for 24 h or 48 h, cell viability was then assessed using the CellTiter-Glo luminescent cell viability assay (Promega). Data is mean±SEM of three independent experiments (each in triplicates). IC50 was calculated using Graphpad prism 5 software.
K562 cells were treated as indicated for 48 h and cell viability was determined by CellTiter-Glo luminescent cell viability assay (A) graphical representation of mean±SEM of three independent experiments.
as §3

pIC50 (K562 cells; FIG. 1B, read-out: IC50 (48 h), reduction of viability): 5.23
pIC50 (K562 cells; drug alone, FIG. 4A, read-out: IC50, K562 cell viability assay (48 h)): 5.38
Compound: CC(C)/N=c1\cc2n(-c3ccc(Cl)cc3)c3ccccc3nc-2cc1Nc1ccc(Cl)cc1 [CFZ, Clofazimine]
CrkL phosphorylation (CrkL): did not alter
apoptosis in CD34+ cells from healthy donor by Annexin V [1]: no apoptosis
viability of CD34+ hematopoietic progenitor cells from healthy controls [1]: No loss of survival
stat5 phosphorylation (stat5; 30 min, Y694): without altering
stat5 protein expression (stat5; 72 h, FIG. 2D): suppressed
combination index (CI) (K562 cells; CFZ with dasatinib, Compusyn): < 1
combination index (CI) (K562 cells; CFZ with imatinib, Compusyn program): < 1
